From PubChem BioAssay (NCI) come the findings set out here.

Among the test systems are KM12 colon; SK-MEL-5 melanoma; SF-268 CNS; SW-620 colon; MDA-N; RPMI-8226 leukemia; MOLT-4 leukemia; HOP-92 NSCLC; A549 NSCLC; NCI/ADR-RES ovarian.
What all share (assay): growth of human tumour cells (NCI), 48 h

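Exposure lasted 48 hours, with cells grown in 96-well plates and compounds tested at five concentrations. The concentration for 50% growth inhibition is given as GI50. TGI is the concentration that stops growth completely.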 Where only a bound is given, the exact number is not on record here.

As for `COc1ccc(CC(CO)NC(=O)OCc2ccccc2)cc1Oc1ccc(CC(CO)NC(=O)OCc2ccccc2)cc1` (configuration not stated), the TGI in the experiment with KM12 colon was 26.9 µM; in the experiment with SK-MEL-5 melanoma, above 100 µM; with SF-268 CNS, 29.4 µM; with SW-620 colon, above 100 µM; with MDA-N it was 54.1 µM; in the experiment with RPMI-8226 leukemia, 30.9 µM. For the same molecule, the TGI in the experiment on MOLT-4 leukemia was 34.5 µM; with HOP-92 NSCLC, 46.1 µM; in the experiment on A549 NSCLC it was 27.2 µM.

`CC(C)(C)C1=Cc2cc3cc(C(C)(C)C)[nH]c(=O)c3cc2S(=O)(=O)N1`: the TGI is 94.6 µM with KM12 colon; 95.1 µM in the experiment on SF-268 CNS; 44.8 µM in the experiment on SW-620 colon; 98.5 µM in the experiment on RPMI-8226 leukemia; 84.3 µM in the experiment with MOLT-4 leukemia; 39.3 µM in the experiment with HOP-92 NSCLC. The molecule further displayed a TGI in the experiment with A549 NSCLC of 75.3 µM.

Turning to `CC(C)(C)N=c1n(C(C)(C)C)oc(=O)n1C(C)(C)C`, the TGI with KM12 colon, with SK-MEL-5 melanoma, with SW-620 colon, with NCI/ADR-RES ovarian, in the experiment with MDA-N and in the experiment with MOLT-4 leukemia was above 100 µM throughout. Also, the TGI with HOP-92 NSCLC and in the experiment on A549 NSCLC was above 100 µM in each case.

As to `C/C(=C\c1ccccc1)C(=O)CCN1CCOCC1`, the TGI is 31.2 µM in the experiment on KM12 colon; above 60.1 µM in the experiment with SK-MEL-5 melanoma; above 85.6 µM in the experiment on SF-268 CNS; 30.9 µM in the experiment on SW-620 colon; 50.5 µM in the experiment on NCI/ADR-RES ovarian; 20.6 µM with RPMI-8226 leukemia. Moreover, the TGI was above 62.3 µM with MOLT-4 leukemia, 37.1 µM with HOP-92 NSCLC and above 100 µM in the experiment with A549 NSCLC.

Consider `CN(C)C(CN)CC1=C(CC(CN)N(C)C)CCC1` (configuration not stated), for which the TGI in the experiment with KM12 colon, in the experiment on SK-MEL-5 melanoma, with SF-268 CNS, in the experiment with SW-620 colon, with NCI/ADR-RES ovarian and in the experiment with RPMI-8226 leukemia was above 100 µM in each case. The TGI in the experiment with MOLT-4 leukemia, in the experiment on HOP-92 NSCLC and in the experiment with A549 NSCLC was above 100 µM in each case.

As to `NC(=O)C(=O)N/N=C1/c2ccccc2CC1C1(O)C(=O)Nc2c(Cl)cc(Cl)cc21` (configuration not stated), the TGI in the experiment on KM12 colon, in the experiment on SK-MEL-5 melanoma, in the experiment on SF-268 CNS, in the experiment on SW-620 colon, in the experiment on RPMI-8226 leukemia and in the experiment with MOLT-4 leukemia was above 100 µM in each case. In addition, the TGI with HOP-92 NSCLC and with A549 NSCLC was above 100 µM each time.

In the case of `C=C(C)CCC(=O)[C@](C)(O)[C@H]1[C@H](O)C[C@@]2(C)[C@@H]3CCc4c(cc(OC5OC(CO)C(O)C(O)C5O)c(O)c4C)C3(C)C(=O)C[C@]12C` (some centres not stated), the TGI in the experiment on KM12 colon, with SK-MEL-5 melanoma, in the experiment with SF-268 CNS, with SW-620 colon, in the experiment with NCI/ADR-RES ovarian and in the experiment with MDA-N was above 100 µM throughout. Moreover, the TGI in the experiment with MOLT-4 leukemia, with HOP-92 NSCLC and in the experiment with A549 NSCLC was above 100 µM each time.

As to `COc1cc2c(cc1OCCCCOc1cc(-c3ccc(F)cc3)nc(C)n1)N=C[C@@H]1CCCN1C2=O`, the TGI in the experiment on KM12 colon was 3.67 µM; in the experiment on SK-MEL-5 melanoma, 1.44 µM; in the experiment with SF-268 CNS it was 16.3 µM; in the experiment on SW-620 colon, 4.85 µM; in the experiment with NCI/ADR-RES ovarian, 2.12 µM; in the experiment with RPMI-8226 leukemia, 0.36 µM. Moreover, the TGI was found to be 0.279 µM in the experiment with MOLT-4 leukemia, 6.18 µM with HOP-92 NSCLC and 10.8 µM in the experiment with A549 NSCLC.

Consider `CCOC(=O)C1=C(C(C)=O)CSC(c2ccccc2)=N1`, for which the TGI with KM12 colon, in the experiment on SK-MEL-5 melanoma, with SF-268 CNS, in the experiment with SW-620 colon, with NCI/ADR-RES ovarian and with RPMI-8226 leukemia was above 100 µM each time. The TGI in the experiment with MOLT-4 leukemia, in the experiment on HOP-92 NSCLC and in the experiment on A549 NSCLC was above 100 µM throughout.

Take `C/C(=N/NC(N)=S)c1ccc2ccccc2c1`: the TGI in the experiment with KM12 colon, in the experiment with SK-MEL-5 melanoma, in the experiment with SF-268 CNS, in the experiment with SW-620 colon, in the experiment with MOLT-4 leukemia and in the experiment with HOP-92 NSCLC was above 100 µM throughout. In the experiment with A549 NSCLC, this molecule showed a TGI above 100 µM.

In the case of `CCOP(=O)(OCC)C1C(CO)OC(n2ccc(=O)[nH]c2=O)C1O` (configuration not stated), the TGI in the experiment on KM12 colon, in the experiment on SK-MEL-5 melanoma, in the experiment on SF-268 CNS, with SW-620 colon, with MDA-N and in the experiment on RPMI-8226 leukemia was above 100 µM throughout. For the same molecule, the TGI with HOP-92 NSCLC and with A549 NSCLC was above 100 µM each time.

`COc1ccc2c(c1)O/C(=C\c1cccc(OCC(=O)Nc3nc4c(s3)CCCC4)c1)C2=O`: the GI50 in the experiment with KM12 colon was 10.4 µM; in the experiment on SK-MEL-5 melanoma it was above 71.8 µM; in the experiment with SF-268 CNS it was 5.33 µM; with SW-620 colon, above 100 µM; with NCI/ADR-RES ovarian, 60.8 µM; in the experiment on RPMI-8226 leukemia, 3.41 µM. The GI50 was 4.5 µM in the experiment on MOLT-4 leukemia, 3.68 µM in the experiment on HOP-92 NSCLC and 29 µM in the experiment on A549 NSCLC. Besides, the TGI with KM12 colon is above 100 µM; with SK-MEL-5 melanoma it was above 100 µM; with SF-268 CNS, 12.3 µM; in the experiment with SW-620 colon, above 100 µM; in the experiment on NCI/ADR-RES ovarian, above 100 µM; with RPMI-8226 leukemia it was above 33.2 µM. For the same molecule, the figures for the TGI with MOLT-4 leukemia, in the experiment with HOP-92 NSCLC and in the experiment with A549 NSCLC were 98.7 µM, 18.5 µM and above 100 µM, respectively.

Consider `COCOc1ccc(OC)cc1`, for which the TGI with KM12 colon, in the experiment with SK-MEL-5 melanoma, in the experiment on SF-268 CNS, in the experiment with SW-620 colon, with NCI/ADR-RES ovarian and with RPMI-8226 leukemia was above 100 µM each time. Further, the TGI in the experiment on MOLT-4 leukemia, with HOP-92 NSCLC and in the experiment with A549 NSCLC was above 100 µM each time.

For `N#Cc1c(-c2ccccc2)/c(=C\Nc2ccc(Cl)cc2)c(=O)n2c1nc1ccccc12`, the TGI in the experiment on KM12 colon, with SK-MEL-5 melanoma, in the experiment on SF-268 CNS, with SW-620 colon, with NCI/ADR-RES ovarian and in the experiment with MDA-N was above 100 µM each time. In addition, the TGI in the experiment on RPMI-8226 leukemia was 45.9 µM; with A549 NSCLC, above 100 µM.
